According to US5049506A, “Proline-containing decapeptides as substrates for factor XIII” (Behringwerke Aktiengesellschaft, priority 1987, dated 1991):
Non-standard residues stand in square brackets, D forms with d. Residues, ends and D or L forms follow the SMILES beside them. Hyp = O=C(O)[C@@H]1C[C@@H](O)CN1

Biological target: T1, factor XIII (Homo sapiens, UniProt P00488)
T1 sequence (P00488 39-732 limits assumed): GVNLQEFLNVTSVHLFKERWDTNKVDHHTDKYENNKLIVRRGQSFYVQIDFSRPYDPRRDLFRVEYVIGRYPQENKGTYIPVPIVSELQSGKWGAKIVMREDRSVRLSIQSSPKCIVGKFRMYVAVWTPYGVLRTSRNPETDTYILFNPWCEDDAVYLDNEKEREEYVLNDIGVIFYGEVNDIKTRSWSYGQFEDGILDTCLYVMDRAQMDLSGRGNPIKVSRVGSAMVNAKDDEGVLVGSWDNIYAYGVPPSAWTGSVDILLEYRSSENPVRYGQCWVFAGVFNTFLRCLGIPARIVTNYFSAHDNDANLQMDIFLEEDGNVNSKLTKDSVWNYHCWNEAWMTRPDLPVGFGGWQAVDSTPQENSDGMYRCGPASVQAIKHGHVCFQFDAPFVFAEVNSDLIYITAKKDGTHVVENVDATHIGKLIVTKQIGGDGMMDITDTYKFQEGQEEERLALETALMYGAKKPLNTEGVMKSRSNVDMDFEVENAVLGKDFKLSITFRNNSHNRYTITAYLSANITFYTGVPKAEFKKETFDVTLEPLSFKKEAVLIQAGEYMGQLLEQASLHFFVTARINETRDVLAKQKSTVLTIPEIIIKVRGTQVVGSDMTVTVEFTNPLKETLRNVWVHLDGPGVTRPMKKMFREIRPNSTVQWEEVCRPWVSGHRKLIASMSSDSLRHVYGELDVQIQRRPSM
Assay: Determination of factor XIII activity by photometric measurement (peptide as substrate, NADH/GLDH-coupled ammonia detection)
Assay type: biochemical
Conditions: decrease in extinction at 340 nm; factor XIII 0.6 U activated with thrombin at 37° C. for 10 min; 100 μl decapeptide amide solution (10 mg/ml in H2O); glycine ethyl ester
Experimental: To test the peptides for their suitability as substrates for the transglutaminase F XIII, a sample solution which contains factor XIII is activated in a buffer mixture which contains about 30mmol/1 calcium chloride at pH 7.6±0.5 with thrombin. The peptide solutions, a solution of an amine derivative, for example glycine ethyl ester or glycine methyl ester, ketoglutarate buffer, glutamic dehydrogenase and an NADH solution are then added. The liberation of ammonia from the decapeptide amide is then measured by means of the decrease in extinction at 340±15nm, and the activity of F XIII is determined.
50 μl of a solution containing factor XIII (0.6 U), which had been adjusted to pH 7.6 and which contained 50 millimolar HEPES, 150 milli molar sodium chloride and 30 millimolar CaC12, were incubated with 25 μl of thrombin solution (30 units dissolved in 1 ml physiological saline) in a 1 ml cuvette at 37° C. for 10 min. 700 μl of a buffer solution composed of triethanolamine pH 8.0, 2.2 g of alpha-ketoglutarate/liter and 133 mg of NADH/liter were added. The sample solution was then mixed with 25 μl of a solution of […] of glutamic dehydrogenase (about 120 units/mg), 100 ml of glycerol, pH 7, 100 μl of glycine ethyl ester (30 mg/ml in H2 O) and 100 μl of decapeptide amide solution (10 mg/ml in H2 O). The decrease in extinction was measured. The results of the kinetic measurement at 340 nm are to be found in the form of delta OD/min values in the following Tables.

SMILES	Delta OD/min [OD/min]
CC(C)C[C@H](NC(=O)[C@@H](NC(=O)[C@H](CCCCN)NC(=O)[C@H](CO)NC(=O)[C@H](CCC(N)=O)NC(=O)CNC(=O)[C@@H]1CCCN1C(=O)CNC(=O)[C@@H](N)CC(C)C)C(C)C)C(=O)NCC(N)=O [Leu--Gly--Pro--Gly--Gln--Ser--Lys--Val--Leu--Gly--NH2] (H-LGPGQSKVLG-NH2)	0.32
CC(C)C[C@H](NC(=O)[C@@H](NC(=O)[C@H](CCCCN)NC(=O)[C@H](CO)NC(=O)[C@H](CCC(N)=O)NC(=O)CNC(=O)[C@@H]1C[C@@H](O)CN1C(=O)CNC(=O)[C@@H](N)CC(C)C)C(C)C)C(=O)NCC(N)=O [Leu--Gly--Hyp--Gly--Gln--Ser--Lys--Val--Leu--Gly--NH2] (H-LG[Hyp]GQSKVLG-NH2)	0.27
CC[C@H](C)[C@H](NC(=O)[C@@H](NC(=O)[C@H](CCCCN)NC(=O)[C@H](CO)NC(=O)[C@H](CCC(N)=O)NC(=O)CNC(=O)[C@@H]1CCCN1C(=O)CNC(=O)[C@@H](N)CC(C)C)C(C)C)C(=O)NCC(N)=O [Leu--Gly--Pro--Gly--Gln--Ser--Lys--Val--Ile--Gly--NH2] (H-LGPGQSKVIG-NH2)	0.35
